Measurements: patent publication US11180474B2 (BRISTOL-MYERS SQUIBB COMPANY, priority 2016, dated 2021)

Legend:
[1] = test system: Imiquimod-induced psoriasis; test: Imiquimod induced psoriasis in mice; type: in vivo, mouse; details: male C57BL/6 mice, vs vehicle control
Description: Imiquimod Induced Psoriasis:
Male C57BL/6 mice of 8-9 week age were used to evaluate the impact of TLR7/8/9 inhibitors on Imiquimod-induced psoriasis. Mice (7 to 10 per group) were randomized into different treatment groups based on body weight. Mice from the respective treatment groups were treated orally, once daily for 6 days with vehicle or test compound. Psoriasis was induced by application of imiquimod cream on the shaved back region of the mice everyday for 6 days. Disease severity was monitored daily by recording of skin thickness, erythema and scaling. A cumulative disease score was also calculated to reflect the impact on the overall severity of inflammation in this model. At the end of experiment, all mice were euthanized by CO2 asphyxiation and skin samples were subjected for histology. At the end of experiment, one way ANOVA with Dunnett's test was performed to calculate the significance of test compound treated group vs. vehicle control group. Overall percent reduction in imiquimod induced psoriasis was calculated for test compound treated group vs vehicle control group.

human TLR7 = target: T1, human TLR7 (Homo sapiens, UniProt Q9NYK1); test: TLR7 inhibition reporter assay (HEK-Blue cells, SEAP reporter, gardiquimod stimulation); type: cell-based; details: HEK-Blue cells overexpressing human TLR7, gardiquimod 7.5 μM
T1 construct: host or cells: HEK-Blue cells
T1 sequence (Q9NYK1 27-1049): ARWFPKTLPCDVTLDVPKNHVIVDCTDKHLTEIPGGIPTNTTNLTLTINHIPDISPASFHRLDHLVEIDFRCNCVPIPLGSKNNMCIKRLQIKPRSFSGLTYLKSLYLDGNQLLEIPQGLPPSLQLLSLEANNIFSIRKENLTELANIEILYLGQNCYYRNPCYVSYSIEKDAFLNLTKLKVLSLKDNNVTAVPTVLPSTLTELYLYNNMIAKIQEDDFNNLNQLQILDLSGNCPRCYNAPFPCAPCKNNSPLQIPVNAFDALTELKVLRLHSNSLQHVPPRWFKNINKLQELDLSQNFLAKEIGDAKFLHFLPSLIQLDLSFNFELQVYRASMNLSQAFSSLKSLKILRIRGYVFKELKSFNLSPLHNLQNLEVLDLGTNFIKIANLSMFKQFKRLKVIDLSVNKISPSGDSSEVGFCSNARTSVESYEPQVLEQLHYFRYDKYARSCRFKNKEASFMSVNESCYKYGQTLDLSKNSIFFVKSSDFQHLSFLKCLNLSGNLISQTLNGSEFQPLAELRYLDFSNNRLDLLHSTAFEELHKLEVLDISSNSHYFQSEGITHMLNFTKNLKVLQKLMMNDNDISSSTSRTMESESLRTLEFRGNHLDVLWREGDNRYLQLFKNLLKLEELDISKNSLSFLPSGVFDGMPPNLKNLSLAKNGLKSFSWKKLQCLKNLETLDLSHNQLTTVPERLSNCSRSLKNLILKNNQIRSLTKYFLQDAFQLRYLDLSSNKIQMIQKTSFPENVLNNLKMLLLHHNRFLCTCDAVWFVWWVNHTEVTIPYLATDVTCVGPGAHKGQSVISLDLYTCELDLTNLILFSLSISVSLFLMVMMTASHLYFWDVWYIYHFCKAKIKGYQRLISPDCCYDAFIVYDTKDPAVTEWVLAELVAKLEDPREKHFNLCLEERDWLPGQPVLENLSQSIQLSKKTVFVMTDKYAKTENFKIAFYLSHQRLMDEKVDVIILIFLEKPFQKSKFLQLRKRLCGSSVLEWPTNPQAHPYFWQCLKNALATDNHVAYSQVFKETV
In short: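 22 h, 37° C, 5% CO2 incubation; compounds 0.05 nM-50 μM final; TLR7 cells 15000/well, TLR8 20,000/well. Readout: SEAP via HEK-Blue Detection medium. % inhibition = signal reduction versus agonist + DMSO wells, referenced to known inhibitor.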

TLR7 = test: In vivo mouse TLR7 PD model (gardiquimod challenge, plasma IL-6); details: oral
Description: In Vivo Mouse TLR7 and TLR9 PD Model:
Adult male C57BL/6 mice were used for the experiments. Mice (7 to 10 per group) were randomized into different treatment groups based on body weight. Mice from the respective treatment groups were administered orally with vehicle or test compound. Thirty min after the oral administration of vehicle or test compound, mice were challenged with intraperitoneal injection of gardiquimod for TLR7 PD model and CpG-ODN for TLR9 PD model. Ninety minutes after gardiquimod injection and 120 minutes after CpG-ODN injection, mice were bled under isoflurane anaesthesia and plasma IL-6 level was estimated by using commercially available ELISA kit (BD Biosciences). At the end of experiment, mean cytokine data was plotted and one way ANOVA with Dunnett's test was performed to calculate the significance of test compound treated group vs. vehicle control group. Percent inhibition of cytokine induction was calculated for test compound treated group vs vehicle control group.

[2] = 0.1 mg/kg orally once daily for 6 days
[3] = 1 mg/kg orally once daily for 6 days
[4] = 10 mg/kg orally once daily for 6 days
[5] = 30 mg/kg orally once daily for 6 days

COc1ccc(-c2[nH]c3ccc(C4CCN(C(=O)CN(C)C)CC4)cc3c2C(C)C)cc1OC [Example 209, 1-(4-(2-(3,4-dimethoxyphenyl)-3-isopropyl-1H-indol-5-yl)piperidin-1-yl)-2-(dimethylamino)ethan-1-one]
% inhibition Cumulative score [1, 2]: 3%
% inhibition Erythema [1, 2]: 3%
% inhibition Scaling [1, 2]: 13%
% inhibition Skin Thickness [1, 2]: 0%
% inhibition Cumulative score [1, 3]: 27%
% inhibition Erythema [1, 3]: 26%
% inhibition Scaling [1, 3]: 38%
% inhibition Skin Thickness [1, 3]: 18%
% inhibition Cumulative score [1, 4]: 40%
% inhibition Erythema [1, 4]: 41%
% inhibition Scaling [1, 4]: 50%
% inhibition Skin Thickness [1, 4]: 29%
% inhibition Cumulative score [1, 5]: 49%
% inhibition Erythema [1, 5]: 53%
% inhibition Scaling [1, 5]: 63%
% inhibition Skin Thickness [1, 5]: 32%
IC50 (human TLR7): 12 nM
% inhibition of IL6 (TLR7; dose 0.001 mg/kg): 11%
% inhibition of IL6 (TLR7; dose 0.01 mg/kg): 21%
% inhibition of IL6 (TLR7; dose 0.1 mg/kg): 61%
% inhibition of IL6 (TLR7; dose 1 mg/kg): 86%
